Laboratory results reported in patent US11970455B1, “7-(4-fluorobenzylidene)-4-(4-fluorophenyl)-2-methoxy-6,7-dihydro-5H-cyclopenta[b]pyridine-3-carbonitrile as an antimicrobial compound” (KING FAISAL UNIVERSITY, priority 2023, dated 2024).

Legend:
Pseudomonas aeruginosa = experiment: Antimicrobial testing by agar dilution, Ps. aeruginosa; type: cell-based; conditions: after 10, 20, 40 and 60 min at all dilutions 1:100, 1:200, 1:400, 1:800
Experimental: (§1) The antimicrobial properties of the 7-(4-fluorobenzylidene)-4-(4-fluorophenyl)-2-methoxy-6,7-dihydro-5H-cyclopenta[b]pyridine-3-carbonitrile was studied by the method of agar dilution. Test solutions of each compound was prepared in concentration of 1% using dimethylformamide as a solvent then they are diluted in physiological solution to obtain the final experimental dilutions 1:100, 1:200, 1:400, 1:800. The effect of these substances are compared with furacillin in a controllable study. The testing microbes used were gram positive bacteria Staphylococcus aureus, gram negative bacteria Pseudomonas aeruginosa, Escherichia coli and Candida albicans fungi were taken. The experiments used for this survey were meat-pentonlu agar (EPA) for cultivation of bacteria and Saburo environment for fungi. Each experiment used 1 mL of test solution on each plate 500 min. Add 2 drops of emulsified with microbes feel. All experimental samples were taken from the agar after 10, 20, 40, 60 minutes in the environment on the basis of Patrk planted. Bacteria were cultivated at a temperature of 37° C. for 1 day and the mushroom was kept in a thermostat for […] at a temperature of 28° C. Then the results were checked.

Staphylococcus aureus = experiment: Antimicrobial testing by agar dilution, St. Aereus; type: cell-based; conditions: after 10, 20, 40 and 60 min at all dilutions 1:100, 1:200, 1:400, 1:800
Experimental: as §1

Escherichia coli = experiment: Antimicrobial testing by agar dilution, E. Coli; type: cell-based; conditions: after 10, 20, 40 and 60 min at all dilutions 1:100, 1:200, 1:400, 1:800
Experimental: as §1

Candida albicans = experiment: Antimicrobial testing by agar dilution, Candida albicans; type: cell-based; conditions: after 10, 20, 40 and 60 min at all dilutions 1:100, 1:200, 1:400, 1:800
Experimental: as §1

**Q.** For COc1nc2c(c(-c3ccc(F)cc3)c1C#N)CC/C2=C\c1ccc(F)cc1 [7-(4-fluorobenzylidene)-4-(4-fluorophenyl)-2-methoxy-6,7-dihydro-5H-cyclopenta[b]pyridine-3-carbonitrile], which inhibition activity (Pseudomonas aeruginosa) is on record?
**A.** most higher inhibition activity

**Q.** What about the inhibition activity (Staphylococcus aureus) of the same compound?
**A.** most higher inhibition activity

**Q.** What about the inhibition activity (Escherichia coli) of the same compound?
**A.** most higher inhibition activity

**Q.** What about the inhibition activity (Candida albicans) of the same compound?
**A.** most higher inhibition activity

**Q.** And the melting point?
**A.** 136 to 138 °C
